Measured values published in patent US7070965B1, “Small molecule anticancer compounds and related production process” (priority 1998, dated 2006).
“Also recorded” adds a separate entry of the source.

What was measured:
[1] = tested on: normal human peripheral blood lymphocytes (PBL); experiment: Cytotoxicity on normal cells, viability assessment; type: cell-based; conditions: at concentrations lethal to tumor cells
Experimental: PBLs, K-562 and SNU-1 cells in suspension culture were seeded in 96-well microplates at a density of 5×10^4 cells/well for K-562 and SNU-1, and 1×10^5 cells/well for PBLs. iso-C15 were diluted with medium to provide different concentrations (0, 1.5, 3.0, 6.0, 15.0, 30.0, and 60.0 μg/ml). Both untreated and solvent (NaOH and Tween 80) treated cells served as controls. After incubation for 48 hours at 37° C., cells were collected directly from the wells for viability assessment.
The ID50, ID75 and ID90 were determined in duplicate in every set of experiments, and each experiment was repeated three times under identical conditions. ID50, ID75 and ID90 were defined as the concentration of iso-C15 required to kill 50, 75 or 90%, respectively, of cells (compared with that in untreated cells) and computed using CalcuSyn for Windows software (Biosoft, Cambridge UK) based on Median Effect method by Dr. T. C. Chou.

[2] = tested on: DU-145 human prostate carcinoma cell lines; experiment: Apoptosis morphology, H&E, light microscope; type: cell-based; conditions: 60 μg/ml, 8 hours
Experimental: Human cancer cell lines DU-145 (prostate cancer), K562 (leukemia), HCT116 (colon cancer), H1688 (lung cancer), SUN423 (hepatocarcinoma), MCF7 (breast cancer), CRL-1687 (pancreatic cancer), and SUN-1 (gastric cancer) were obtained from American Type Culture Collection (ATCC). 30 ml blood was collected from a health person and normal peripheral mononuclear cells were separated by Ficoll separation solution (Sigma). All cells were maintained in RPMI 1640, DMEM, or McCoy medium supplemented with 10% FCS, […] streptomycin and 100 u/ml penicillin. Normal human peripheral mononuclear cells, K562 and SUN-1 were suspended cells. After spinning at 1,500 RPM for 5 min, supernatants were discharged and cells were resuspended and expended in fresh medium. The other tumor cell lines were adherent cells and were dispersed with 0.05% trypsin/0.01% EDTA (Irvine Scientific, CA) for expansion. Cells were seeded in T75 flasks at 2×10^6 cells/flask in culture medium supplemented with 10% fetal bovine serum and incubated overnight at 37° C. with 5% CO2. The adherent cells attached to the plate were striped with disposable cell scrapers (Fisher Scientific) after treated either with 1% iso-C15, anteiso-C15 or control solution for 1, 2, 4, 8 and 24 hours and then combined with respective float cells. […]

[3] = tested on: SNU-1 cells; experiment: In situ cell death detection (TUNEL, fluorescence microscopy); type: cell-based, human; conditions: 60 μg/ml, 8 hours
Source text: (§1) In Situ Cell Death Detection Kit, POD (Mannheim Boehringer GmbH) was used to detect the individual apoptotic cells. Cleavage of genomic DNA during apoptosis may yield double-stranded, low molecular weight DNA fragments as well as single strand breaks in high molecular weight DNA. Those DNA strand breaks can be identified by labeling free 3′-OH termini with modified nucleotides in an enzymatic reaction. In this kit terminal deoxynucleotidyl transferase (TdT) is used to label free 3′-OH ends in genomic DNA with fluorescein-dUTP. The incorporated fluorescein is visualized under fluorescence microscope directly. The incorporated fluorescein can also bind to anti-fluorescein antibody POD and be detected by substrate reaction. Stained cells can be analyzed under light microscope.
(§2) Four human tumor cell lines, K-562 human leukemia, SNU-1 human gastric carcinoma cell lines, MCF-7 human breast adenocarcinoma and H1688 human small cell lung carcinoma cell lines, as well as Human PBLs were treated with iso-C15 (60 μg/ml).
SNU-1 cells treated with iso-C15 for 8 hours were added with TUNEL-reaction mixture and incubated 60 min at 37° C. After washing with PBS for three times, cell morphology was analyzed directly under fluorescence microscopy.

[4] = tested on: H1688 cancer cells; experiment: In situ cell death detection, POD; type: cell-based, human; conditions: 60 μg/ml, 8 hours
Source text: as §1, §2
(§3) H1688, K-562 and DU145 human cancer cells and normal human PBLs were added with POD and incubated 30 min at 37° C., washed three times with PBS, then reacted with substrate AEC and incubated for 10 min at room temperature. The cells were analyzed under light microscope. […] It is evidenced that iso-C15 induces apoptosis of cancer cells but not normal human cells.

[5] = tested on: K-562 leukemia cells; experiment: In situ cell death detection, POD; type: cell-based, human; conditions: 60 μg/ml, 2 and 4 hours
Source text: as §1, §2, §3

[6] = tested on: DU145 cancer cells; experiment: In situ cell death detection, POD; type: cell-based, human; conditions: 60 μg/ml, 8 hours
Source text: as §1, §3

[7] = Determination of LD50; type: in vivo
Experimental: 13-methyltetradecanoic acid (iso-C15) purchased from Sigma (St. Louis, Mo.) was prepared by dissolving in NaOH solution and then in 0.35% Tween 80 with pH7.5.
ICR mice weighing 20.5–22.5 g of both sexes were treated with iso-C15 i.p. qd×3 in test groups and with solvent of same dose as in a control group. The doses ranged from 10 to 800 mg/kg of iso-C15 and two mice were included in each dose group (10 mg/kg, 20 mg/kg, 40 mg/kg, 80 mg/kg, 160 mg/kg, and 800 mg/kg). The general condition of these mice were monitored daily for seven days.

[8] = Human clinical studies on the safety of iso-C15; type: in vivo
Experimental: Chemically synthesized iso-C15 of 99.8% purity were prepared in 0.20 g capsules. Six healthy adult volunteers (4 male, 2 female) of average age 35.6 were divided into three groups, and orally received iso-C15 capsules for thirty days. Low dose group: one case, 0.6 g daily; middle dose group: two cases, 1.2 g daily; high dose group: three cases, 1.8 g daily. The examinations were carried out before, during and after experiment, including physical examinations, blood and urine routine examinations, function of heart, liver and kidney, X-ray radioscopy of lung and subjective symptom.

[9] = 0.6–1.8 g daily oral, thirty days
[10] = after test, 0.6–1.8 g daily oral, thirty days

CC(C)CCCCCCCCCCCC(=O)O [iso-C15, 13-methyltetradecanoic acid]
toxicity against normal human peripheral blood lymphocytes [1]: not toxic against normal human peripheral blood lymphocytes
morphological changes indicative of apoptosis [2]: membrane blebs were noted
apoptotic cells, TUNEL fluorescence [3]: Several yellow fluorescent spots of apoptotic cells were noted
apoptotic cells stained, POD [4]: apoptotic H1688 cancer cells (stained red) were found
apoptotic cells stained, POD [5]: some cells started apoptosis (stained red) 2 hours after treatment
apoptotic cells stained, POD [6]: Some stained apoptotic DU145 cancer cells were shown
LD50 at 7 days ([7]; both sexes, ICR, mouse, in vivo, ip): > 800 mg/kg
mortality ([7]; i.p. qd×3, dose up to 800 mg/kg, monitored seven days): No mice died
toxicity / side effects in volunteers ([8]; 0.6 g–1.8 g daily for one month, oral): without any side effects; also recorded: without any toxicity effects
heart and lung, electrocardiogram (EKG) and X-ray radioscopy [8, 9]: No abnormality
urine routine [8, 9]: no abnormality
ALT [8, 10]: 15.00 ± 10.33 μ/L
BUN [8, 10]: 6.47 ± 1.72 mmol/L
GRAN [8, 10]: 3.80 ± 0.89 × 10^9
HB [8, 10]: 128 ± 16.9 g/L
PLT [8, 10]: 232.0 ± 52.1 × 10^9/L
RBC [8, 10]: 4.62 ± 0.69 × 10^12/L
WBC [8, 10]: 7.50 ± 0.71 × 10^9/L
ALT ([8]; before test, X ± SD, 6 cases): 15.17 ± 8.70 μ/L
BUN ([8]; before test, X ± SD, 6 cases): 6.69 ± 2.14 mmol/L
GRAN ([8]; before test, X ± SD, 6 cases): 3.20 ± 0.59 × 10^9
HB ([8]; before test, X ± SD, 6 cases): 122 ± 10.4 g/L
PLT ([8]; before test, X ± SD, 6 cases): 203.0 ± 33.3 × 10^9/L
RBC ([8]; before test, X ± SD, 6 cases): 4.64 ± 0.40 × 10^12/L
WBC ([8]; before test, X ± SD, 6 cases): 5.80 ± 0.95 × 10^9/L
